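96-well plates; 48 h exposure; 5 concentrations. Endpoints by linear interpolation between flanking doses. Not reached: highest tested concentration assigned. GI50 is the concentration that inhibits growth by half.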 Calls of active or inactive are those of the source. Rule as the data show it: active = GI50 up to about 1.1 µM and inactive = higher.

Among the test systems are UACC-62; ACHN; UACC-257; SK-MEL-2; HOP-62; DLD-1; MOLT-4; HCC 2998; SF-268; KM12; HCT-116; IGROV-1; RPMI-8226; LOX IMVI; OVCAR-5; SF-539; A498; MDA-MB-435; SR; MDA-N.
What all share (assay): NCI anticancer screen, dose series, 48 h

On to `O=C1CC2Sc3ccccc3N=C2N1c1ccc(Cl)cc1Cl` (stereo not given), for which the GI50 in the assay with UACC-62 is 48.3 µM (inactive); in the assay on ACHN, 54.3 µM (inactive); in the assay on UACC-257, > 100 µM (inactive); with SK-MEL-2 it was 46.6 µM (inactive); in the assay with HOP-62, > 100 µM (inactive); in the assay with DLD-1, 32.7 µM (inactive). The GI50 with MOLT-4 was 23.3 µM (inactive); with HCC 2998, > 100 µM (inactive); in the assay with SF-268, 40.9 µM (inactive); in the assay on KM12, 49.8 µM (inactive); in the assay with HCT-116, 38.2 µM (inactive); in the assay with IGROV-1, 78.2 µM (inactive). Besides, the GI50 is 49.2 µM (inactive) in the assay on RPMI-8226, 40.7 µM (inactive) in the assay with LOX IMVI and > 100 µM (inactive) in the assay on OVCAR-5.
As to `CCOC(=O)NC(=O)c1cn(CCCCCCCCCCC(=O)N2CCN(CCn3cc(C(=O)NC(=O)OCC)c(=O)[nH]c3=O)CC2)c(=O)[nH]c1=O`, the GI50 in the assay on UACC-62, in the assay on ACHN, in the assay with UACC-257, with HOP-62, with DLD-1 and in the assay on MOLT-4 was > 100 µM (inactive) each time. Moreover, the GI50 in the assay on HCC 2998, in the assay on HCT-116, in the assay with IGROV-1, with SF-539, in the assay on RPMI-8226 and with LOX IMVI was > 100 µM (inactive) in each case. The GI50 with A498 is > 100 µM (inactive).
Regarding `O=S(=O)(O)C(F)(F)C(F)(F)C(F)(F)C(F)(F)F`, the GI50 with UACC-62, in the assay on ACHN, in the assay on UACC-257, in the assay on SK-MEL-2, in the assay with HOP-62 and in the assay on DLD-1 was > 100 µM (inactive) throughout. In addition, the GI50 in the assay with MOLT-4, with HCC 2998, in the assay on SF-268, with KM12, with HCT-116 and with IGROV-1 was > 100 µM (inactive) each time. The GI50 is > 100 µM (inactive) in the assay with SF-539; > 100 µM (inactive) in the assay with RPMI-8226; > 100 µM (inactive) in the assay with LOX IMVI; 43.7 µM (inactive) in the assay with A498; > 100 µM (inactive) in the assay with OVCAR-5.
Take `O=C(O)CCCNS(=O)(=O)c1ccccc1`: the GI50 in the assay with UACC-62, in the assay on ACHN, in the assay on UACC-257, in the assay with SK-MEL-2, in the assay on DLD-1 and with MOLT-4 was > 100 µM (inactive) each time. Further, the GI50 in the assay on HCC 2998, in the assay on SF-268, in the assay with KM12, in the assay on IGROV-1, in the assay on SF-539 and in the assay on RPMI-8226 was > 100 µM (inactive) each time. In addition, the GI50 in the assay with LOX IMVI, in the assay with A498 and in the assay with OVCAR-5 was > 100 µM (inactive) each time.
`COc1ccc2c(c1)c1c3c(ccc4ncn2c43)N(CCN(C)C)CCN=1`: the GI50 in the assay on MDA-MB-435 is 0.378 µM (active); in the assay with UACC-62, 1.23 µM (inactive); in the assay with ACHN, 0.701 µM (active); in the assay on UACC-257 it was 1.85 µM (inactive); with SR it was 0.0302 µM (active); in the assay on SK-MEL-2, 1.03 µM (active). Besides, the GI50 in the assay on HOP-62 is 0.362 µM (active); with MOLT-4 it was 0.043 µM (active); in the assay with HCC 2998, 0.422 µM (active); in the assay with SF-268 it was 0.836 µM (active); with KM12, 0.374 µM (active); with MDA-N, 0.438 µM (active). Also, the GI50 in the assay with HCT-116 is 0.298 µM (active); in the assay with IGROV-1, 1.31 µM (inactive); with SF-539, 0.362 µM (active); in the assay with RPMI-8226 it was 1.48 µM (inactive); in the assay on LOX IMVI it was 0.378 µM (active); with A498, 1.42 µM (inactive). Further, in the assay on OVCAR-5, the GI50 was 0.676 µM (active).
Take `O=C(NC(=O)c1cn(CCN2CCN(C(=O)NCCCCCCNC(=O)N3CCN(CCn4cc(C(=O)NC(=O)OCc5ccccc5)c(=O)[nH]c4=O)CC3)CC2)c(=O)[nH]c1=O)OCc1ccccc1`: the GI50 in the assay on UACC-62, in the assay with ACHN, with UACC-257, in the assay on HOP-62, in the assay with DLD-1 and with MOLT-4 was > 100 µM (inactive) in each case. Further, the GI50 in the assay on HCT-116, in the assay on IGROV-1, in the assay with SF-539, in the assay on RPMI-8226, in the assay with LOX IMVI and in the assay on OVCAR-5 was > 100 µM (inactive) throughout.
On to `O=C(O)CSSCC(=O)O`, for which the GI50 in the assay on MDA-MB-435, in the assay on UACC-62, in the assay on ACHN, in the assay on UACC-257, with SR and with SK-MEL-2 was > 100 µM (inactive) throughout. The GI50 with HOP-62, with MOLT-4, with HCC 2998, in the assay on SF-268, in the assay on KM12 and with MDA-N was > 100 µM (inactive) in each case. Besides, the GI50 with HCT-116, in the assay with IGROV-1, in the assay with SF-539, with RPMI-8226, in the assay on LOX IMVI and in the assay with A498 was > 100 µM (inactive) in each case. The GI50 with OVCAR-5 was > 100 µM (inactive).
On to `C1=CC=C2NCCC/N=C3/C=CC=CC=C3NCCC/N=C\2C=C1`, for which the GI50 in the assay on UACC-62, in the assay with ACHN, in the assay on SK-MEL-2, in the assay on HOP-62, in the assay with DLD-1 and with MOLT-4 was > 100 µM (inactive) each time. For the same molecule, the GI50 in the assay with HCC 2998, in the assay with SF-268, with KM12, with HCT-116, with IGROV-1 and in the assay with SF-539 was > 100 µM (inactive) each time. The GI50 in the assay with RPMI-8226, with LOX IMVI, in the assay with A498 and with OVCAR-5 was > 100 µM (inactive) throughout.
Regarding `O=C(O)c1nn(-c2ccc(Cl)cc2)c2c1C(=O)c1ccccc1C2=O`, the GI50 is > 100 µM (inactive) with MDA-MB-435; > 100 µM (inactive) in the assay with UACC-62; > 100 µM (inactive) in the assay on ACHN; > 100 µM (inactive) in the assay with UACC-257; 21.2 µM (inactive) with SR; > 100 µM (inactive) with SK-MEL-2. In addition, the GI50 in the assay with HOP-62 was > 100 µM (inactive); in the assay on MOLT-4, 22 µM (inactive); in the assay on HCC 2998 it was 43.1 µM (inactive); in the assay on SF-268 it was > 100 µM (inactive); in the assay with KM12, > 100 µM (inactive); with MDA-N it was > 100 µM (inactive). Moreover, the GI50 in the assay on HCT-116 is > 100 µM (inactive); in the assay with IGROV-1, > 100 µM (inactive); in the assay with SF-539, 30.2 µM (inactive); in the assay with RPMI-8226 it was > 100 µM (inactive); in the assay on LOX IMVI it was > 100 µM (inactive); in the assay on A498 it was > 100 µM (inactive). Also, in the assay with OVCAR-5, the GI50 was > 100 µM (inactive).

Values taken from ChEMBL document CHEMBL1201862, “PubChem BioAssay data set” (2004).
